Experimental data from article PMC8500670, “A selective WDR5 degrader inhibits acute myeloid leukemia in patient-derived mouse models” (Science translational medicine, 2021).

Assays:
Experiment in all cases: biochemical
Design in all cases: protein methyltransferase inhibition panel, single concentration, duplicate
[1] = target: DOT1L (Homo sapiens, UniProt Q8TEK3)
Method: (§1) We next assessed selectivity of MS67 against 22 protein methyltransferases (table S2) and a broad panel of common drug targets including 45 kinases (table S3) and 44 G protein–coupled receptors (GPCR), ion channels, and transporters (table S4). […] We subsequently determined that MS67 had moderate binding affinity (Ki = 1.0 ± 0.8 μM) to Sigma 2 receptor (fig. S10).

[2] = target: T1, PRMT7 (Homo sapiens, UniProt Q9NVM4)
T1 sequence (Q9NVM4 1-692): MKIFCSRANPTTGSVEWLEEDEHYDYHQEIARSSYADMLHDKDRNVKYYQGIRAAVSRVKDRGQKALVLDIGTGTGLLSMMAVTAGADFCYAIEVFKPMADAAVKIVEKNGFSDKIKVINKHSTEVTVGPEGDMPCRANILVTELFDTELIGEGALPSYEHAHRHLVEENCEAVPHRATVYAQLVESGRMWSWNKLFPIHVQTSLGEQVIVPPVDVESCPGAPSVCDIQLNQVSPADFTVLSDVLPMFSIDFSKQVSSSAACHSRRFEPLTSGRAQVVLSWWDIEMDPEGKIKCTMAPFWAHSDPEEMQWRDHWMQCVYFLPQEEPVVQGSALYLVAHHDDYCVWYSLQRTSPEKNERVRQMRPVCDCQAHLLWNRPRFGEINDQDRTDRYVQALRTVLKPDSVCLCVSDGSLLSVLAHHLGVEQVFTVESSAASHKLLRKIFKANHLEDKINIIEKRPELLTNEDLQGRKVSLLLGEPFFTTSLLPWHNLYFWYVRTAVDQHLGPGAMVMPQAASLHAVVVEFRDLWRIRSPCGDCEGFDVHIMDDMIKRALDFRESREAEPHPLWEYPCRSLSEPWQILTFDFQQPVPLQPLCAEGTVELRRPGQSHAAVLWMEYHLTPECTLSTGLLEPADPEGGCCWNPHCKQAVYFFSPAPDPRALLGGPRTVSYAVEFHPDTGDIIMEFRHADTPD
Method: as §1

[3] = target: T2, PRMT4 (Homo sapiens, UniProt Q86X55)
T2 construct: gene CARM1
T2 sequence (Q86X55 1-608): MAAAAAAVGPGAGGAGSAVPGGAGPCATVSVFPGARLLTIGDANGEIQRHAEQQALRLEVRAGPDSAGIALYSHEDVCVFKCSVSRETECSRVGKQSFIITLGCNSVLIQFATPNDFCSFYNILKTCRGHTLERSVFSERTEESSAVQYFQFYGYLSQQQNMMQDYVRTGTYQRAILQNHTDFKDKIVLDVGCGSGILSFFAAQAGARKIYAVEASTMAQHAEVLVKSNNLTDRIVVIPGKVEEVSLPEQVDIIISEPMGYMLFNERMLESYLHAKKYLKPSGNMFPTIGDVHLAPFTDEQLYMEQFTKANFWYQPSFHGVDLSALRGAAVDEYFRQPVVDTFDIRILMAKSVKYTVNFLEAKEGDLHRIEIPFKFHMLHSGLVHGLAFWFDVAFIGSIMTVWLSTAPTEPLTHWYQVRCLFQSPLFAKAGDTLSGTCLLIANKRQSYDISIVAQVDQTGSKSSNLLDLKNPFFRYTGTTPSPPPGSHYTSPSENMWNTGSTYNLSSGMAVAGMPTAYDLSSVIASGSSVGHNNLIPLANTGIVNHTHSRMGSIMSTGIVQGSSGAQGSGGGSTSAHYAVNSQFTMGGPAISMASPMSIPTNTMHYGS
Method: as §1

[4] = target: PRMT3 (Homo sapiens, UniProt O60678)
Method: as §1

Measured: inhibition at 10 µM

Sequence of DOT1L (Q8TEK3 whole entry): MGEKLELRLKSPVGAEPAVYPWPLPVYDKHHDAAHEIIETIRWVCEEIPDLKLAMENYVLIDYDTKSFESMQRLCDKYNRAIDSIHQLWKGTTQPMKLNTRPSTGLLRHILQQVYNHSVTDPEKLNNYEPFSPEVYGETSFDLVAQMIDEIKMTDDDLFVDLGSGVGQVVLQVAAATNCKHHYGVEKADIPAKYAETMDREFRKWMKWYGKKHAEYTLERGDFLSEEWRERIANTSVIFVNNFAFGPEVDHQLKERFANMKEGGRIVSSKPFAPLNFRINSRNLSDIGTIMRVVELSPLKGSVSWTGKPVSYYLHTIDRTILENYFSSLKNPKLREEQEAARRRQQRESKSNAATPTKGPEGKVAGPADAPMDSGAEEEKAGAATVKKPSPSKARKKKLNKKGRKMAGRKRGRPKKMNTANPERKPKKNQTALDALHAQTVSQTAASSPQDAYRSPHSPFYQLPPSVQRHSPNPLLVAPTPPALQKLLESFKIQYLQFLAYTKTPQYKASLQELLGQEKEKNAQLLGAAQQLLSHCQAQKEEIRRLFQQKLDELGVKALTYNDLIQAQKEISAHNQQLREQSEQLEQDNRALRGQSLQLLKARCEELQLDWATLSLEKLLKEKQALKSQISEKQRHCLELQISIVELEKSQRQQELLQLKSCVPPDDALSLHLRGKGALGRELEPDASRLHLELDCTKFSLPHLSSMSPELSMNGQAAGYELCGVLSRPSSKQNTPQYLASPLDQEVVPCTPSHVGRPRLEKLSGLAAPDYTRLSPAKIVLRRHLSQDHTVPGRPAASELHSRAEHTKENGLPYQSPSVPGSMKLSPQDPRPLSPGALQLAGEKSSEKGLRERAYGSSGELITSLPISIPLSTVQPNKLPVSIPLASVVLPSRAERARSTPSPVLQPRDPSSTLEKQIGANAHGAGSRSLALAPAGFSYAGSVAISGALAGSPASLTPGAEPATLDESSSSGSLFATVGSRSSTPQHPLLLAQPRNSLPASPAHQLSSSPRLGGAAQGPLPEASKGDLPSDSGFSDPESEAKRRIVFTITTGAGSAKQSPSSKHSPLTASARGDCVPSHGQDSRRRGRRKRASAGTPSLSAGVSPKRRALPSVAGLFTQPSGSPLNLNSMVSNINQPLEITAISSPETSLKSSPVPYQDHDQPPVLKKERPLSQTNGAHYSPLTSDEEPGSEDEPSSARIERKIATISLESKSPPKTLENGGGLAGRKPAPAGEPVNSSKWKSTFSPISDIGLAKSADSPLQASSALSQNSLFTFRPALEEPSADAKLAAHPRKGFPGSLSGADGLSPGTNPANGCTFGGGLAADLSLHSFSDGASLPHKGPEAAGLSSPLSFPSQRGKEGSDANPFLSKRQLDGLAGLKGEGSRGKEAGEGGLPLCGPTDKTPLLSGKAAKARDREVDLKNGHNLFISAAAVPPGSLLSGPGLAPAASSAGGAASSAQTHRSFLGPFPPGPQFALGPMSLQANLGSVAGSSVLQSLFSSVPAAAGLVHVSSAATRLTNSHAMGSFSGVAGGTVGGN
Sequence of PRMT3 (O60678 whole entry): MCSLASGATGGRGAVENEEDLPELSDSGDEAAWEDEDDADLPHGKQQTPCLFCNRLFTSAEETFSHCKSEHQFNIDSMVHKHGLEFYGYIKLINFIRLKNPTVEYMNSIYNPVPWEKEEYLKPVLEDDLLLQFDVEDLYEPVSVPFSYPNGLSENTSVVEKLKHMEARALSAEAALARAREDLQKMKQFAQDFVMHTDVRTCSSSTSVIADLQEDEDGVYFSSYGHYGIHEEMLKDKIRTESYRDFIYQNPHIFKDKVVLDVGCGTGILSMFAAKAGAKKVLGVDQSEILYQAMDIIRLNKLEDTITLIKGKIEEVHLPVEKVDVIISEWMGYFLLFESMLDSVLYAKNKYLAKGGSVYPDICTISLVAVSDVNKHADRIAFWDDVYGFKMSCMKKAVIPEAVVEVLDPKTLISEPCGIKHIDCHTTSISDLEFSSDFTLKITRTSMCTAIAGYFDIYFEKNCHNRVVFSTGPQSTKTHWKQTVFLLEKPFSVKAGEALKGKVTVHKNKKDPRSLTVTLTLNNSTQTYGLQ

Cc1ncsc1-c1ccc([C@H](C)NC(=O)[C@@H]2C[C@@H](O)CN2C(=O)[C@@H](NC(=O)CNC(=O)c2ccc(F)c(-c3ccc(N4C[C@@H](C)N(C)[C@@H](C)C4)c(NC(=O)c4c[nH]c(=O)cc4C(F)(F)F)c3)c2)C(C)(C)C)cc1 [MS67]
< 10%: all assays above
